Experimental data published in patent US6310247A, “7-aryl-6(Z)-heptatrienoic acid retinamides” (Hoffmann-LA Roche Inc., priority 1999, dated 2001).
Like-named read-outs stand apart in the source and are kept apart here.

Experiments:
[1] = tested on: MDA 231 cells; test: Cell growth inhibition: MTT assay, MDA 231 (ER- breast carcinoma); assay type: cell-based; conditions: Homo sapiens, MDA-MB-231, read-out: % inhibition of cell growth compared to no drug control
Method: ER- breast carcinoma, human (MDA-231) obtained from ATCC (HTB 22), were grown in Eagle's MEM medium supplemented with non-essential amino acids, sodium pyruvate, and Earle's BSS, 10% FBS, and 13 ng/mL gentamicin. Cells were incubated at 37° C., 4.5% CO2 and 95.5% humidified air.
1. Cell growth inhibition: MTT Assay
The compounds of formula 1 were tested for ability to inhibit cell growth using the standard MTT assay, a tetrazolium-based assay which measures the viability of cells in culture. Cells were harvested upon reaching 70-80% confluency and pelleted. The cells were then resuspended in medium in which FBS was replaced with Hyclone's Charcoal/Dextran stripped FBS, and seeded (2 mL/well) into 6-well plates (Corning) at a density allowing for linear growth over a four day assay period. Compounds of formula 1 (10 mM stock in dimethylsulfoxide (DMSO)) were added 18-24 hours post-seeding. Compound dilutions were prepared in the appropriate growth media and added to the cells for final concentrations of 10, 3.3 and 1 μM in 0.1% DMSO. At 24, 48 and 72 hr. time points, MTT (3-[4,5-dimethylthiazol-2-yl-2,5-diphenyltetrazolium bromide) stock solution (5mg/mL in 1 PBS) was added to the cells plates (625 μL/well) which were then incubated for 2.5 hours. Liquid was aspirated from the wells and 1 mL/well of 95% ethanol was added to solubilize the formazan reaction product. The plates were shaken (Bellco Mini-Orbital Shaker) for 15 minutes. The solubilized formazan was then transferred (50 μls) into a 96-well plate and the optical densities (OD) were measured (Bio-Tek Microplate Reader) at 570 nm and reference wavelength of 660 nm. Percentage of inhibition of cell growth was calculated according to the following formula: [formula]

[2] = tested on: H1299 cells; test: Apoptosis: cell death detection by ELISA, H1299 (lung large cell carcinoma); assay type: cell-based; conditions: Homo sapiens, NCI-H1299, read-out: Fold induction of apoptosis compared to no drug control
Method: Lung, large cell carcinoma, human (H1299), obtained from ATCC (CRL-5803), were grown in Gibco's Delbecco Minimum Essential media (DMEM), high glucose, supplemented with sodium pyruvate, 10% FBS and 13 ng/mL gentamicin. Cells were incubated at 37° C., 4.5% CO2 and 95.5% humidified air.
(§1) 2. Apoptosis: Cell death detection by ELISA:
(§2) Compounds of formula 1 were tested for the ability to cause apoptosis as follows:
(§3) Cells and media were collected, cells were pelleted, resuspended in 100 μl lysis buffer (50 mM Tris-Cl (pH=8.0), 20 mM EDTA, 1% NP-40e) and incubated 30 minutes at 4° C. to lyse. Cell debris was spun down and an aliquot (30 μl) of the […] was removed for protein determination and stored at -20° C. An additional 280 μl of lysis buffer, was added, mixed thoroughly and spun down at 14,000 RPM for 10 minutes at 4° C. An aliquot was removed (180 μl) and the sample was stored at -20° C. until testing.
A commercially available apoptosis detection kit, obtained from Boehringer Mannheim (Cat. No. 1544-674), was used as per the directions provided with the kit (Cell Death Detection ELISA). However, the protocol was modified in that a 1:40 to 1:100 dilution of sample was prepared, rather than the recommended 1:10 dilution, due to the increase in cell number used to prepare the sample extract and the subsequent increase in ELISA reactivity. The assay measures apoptosis by quantifying the amount of nucleosomal fragmentation from the extracts of cells treated with the test compounds (samples). These nucleosomal fragments, generated by the activation of endonucleases, are a known downstream effector of apoptosis. Antihistone antibodies are used to fix any nucleosomal fragments in the sample to the well of the microtiter plates. The sample is then incubated with anti-DNA antibodies conjugated to peroxidase and subsequently incubated with the peroxidase substrate, ABTS. The resulting colorimetric change is measured spectrophotometrically at 405/490nm.
The total protein content of each sample was determined for the purpose of normalizing the ELISA values to amount of sample loaded. Microplate assay protocol described in the instruction manual, for (Biorad DC Assay, Cat.#500-0116) section 5.2. The protein concentrations were calculated based upon a linear regression curve.
d) ELISA assay calculations
(§4) Relative ELISA O.D. readings are determined by subtracting the ELISA plate background O.D. value. No drug control O.D. value (lysis buffer only) was subtracted from sample O.D. value. A correction coefficient (CC), based on the sample protein concentration compared to no drug control, was determined to correct the sample O.D. following subtraction of the background O.D. (BCS O.D.). The fold increase over no drug control is calculated and normalized to the total protein concentration of the samples by multiplying against the correction coefficient.
To determine the fold increase in ELISA O.D., obtain the following O.D. measurements:
ELISA plate background--lysis buffer only (EPB);
no drug treated control--cell sample treated with DMSO (NDT);
drug treated sample--cell sample treated with a compound of formula 1 (DT) Subtract EPB from NDT (NDT-EPB) and DT (DT-EPB). The fold increase of the treated over the control is then (DT-EPB)/(NDT-EPB).
To determine the total protein concentration of the samples, obtain the total protein concentration in mg/ul calculated using standard linear regression formula (y=mx+b) based on BSA standards. B=ELISA background. Protein concentration (PC)(mg/ml)=(sample absorbance-b)/x.
Correction coefficient (cc) is (NDT)(PC)/(DT)(PC).
Determine fold increase of ELISA (FT) normalized to total PC:
nDT is DT×cc (which is DT O.D. normalized to PC)
nNDT is NDT×cc (which is NDT O.D. normalized to PC)
FI normalized to PC is nDT/nNDT.

[3] = tested on: ER+ and ER- breast carcinoma cells; test: Induction of apoptosis in ER+ and ER- carcinoma cells (statements in words); assay type: cell-based, human; conditions: 24-48 h
Method: as §1, §2, §3
A commercially available apoptosis detection kit, obtained from Boehringer Mannheim (Cat. No. 1544-674), was used as per the directions provided with the kit (Cell Death Detection ELISA). […] The assay measures apoptosis by quantifying the amount of nucleosomal fragmentation from the extracts of cells treated with the test compounds (samples). […] The resulting colorimetric change is measured spectrophotometrically at 405/490nm.
The total protein content of each sample was determined for the purpose of normalizing the ELISA values to amount of sample loaded. […] The protein concentrations were calculated based upon a linear regression curve. […]
as §4, with “No drug control O.D. value (lysis buffer only) was subtracted from sample O.D. value.” left out, “coefficient. […]” for “coefficient.”
To determine the total protein concentration of the samples, obtain the total protein concentration in mg/ul calculated using standard linear regression formula (y=mx+b) based on BSA standards. […] Protein concentration (PC)(mg/ml)=(sample absorbance-b)/x. […]

C/C(=C/C=C/C(C)=C/C(=O)Nc1ccc(O)cc1)c1cc(C(F)(F)F)cc(C(F)(F)F)c1 [N-(4-hydroxyphenyl)-(2E,4E,6Z)-7-[3,5-bis(trifluoromethyl)phenyl]-3,7-dimethyl-2,4,6-heptatrienamide]
inhibition at 1 µM ([1]; 24 hours): 18% | inhibition at 3.3 µM ([1]; 24 hours): 30% | inhibition at 10 µM ([1]; 24 hours): 26% | inhibition at 1 µM ([1]; 48 hours): 39% | inhibition at 3.3 µM ([1]; 48 hours): 35% | inhibition at 10 µM ([1]; 48 hours): 61% | inhibition at 1 µM ([1]; 72 hours): 46% | inhibition at 3.3 µM ([1]; 72 hours): 62% | inhibition at 10 µM ([1]; 72 hours): 71% | fold induction at 1 µM ([2]; 24 hrs): 1 | fold induction at 3.3 µM ([2]; 24 hrs): 3 | fold induction at 10 µM ([2]; 24 hrs): 2 | fold induction at 1 µM ([2]; 48 hrs): 1 | fold induction at 3.3 µM ([2]; 48 hrs): 10 | fold induction at 10 µM ([2]; 48 hrs): 12 | fold induction at 1 µM ([2]; 72 hrs): 1 | fold induction at 3.3 µM ([2]; 72 hrs): 17 | fold induction at 10 µM ([2]; 72 hrs): 20 | Induction of apoptosis (in words) [3]: significant induction of apoptosis
